Columns and labels:
[1] = Hydrogen peroxide scavenging assay; settings: for H2O2 free radical scavenging ability: mean ± S.E.M, n = 3
Protocol: In addition to DPPH the ligand acids and their complexes were also evaluated for their peroxide scavenging ability test. Hydrogen peroxide (H2O2) is a biologically important, non-radical reactive oxygen species (ROS) that can influence several cellular processes. It is a weak oxidizing agent and can inactivate a few enzymes directly, usually via oxidation of essential thiol (-SH) groups. It can cross cell membranes rapidly, and inside the cell, H2O2 probably reacts with Fe^2+ (and possibly Cu^2+) ions to form the hydroxyl radical, which may be the origin of many of its toxic effects. It is, therefore, biologically advantageous for cells to control the amount of hydrogen peroxide that is allowed to accumulate.
The ligand acids and their Cu(II) carboxylates were further subjected to H2O2 scavenging ability test potential by following the procedure as per cited literature. A 2 mM solution of H2O2 was made in 50 mM phosphate buffer having a pH 7.4. In the next step, 0.1 mL of the screened compounds was added to the 0.3 mL (50 mM) of phosphate buffer, then 0.6 mL of H2O2 was added and the solution was vortexed. After following the incubation period of 10 min, the absorption was 230 nm in comparison to the blank.

DPPH scavenging assay [2] = settings: for DPPH Free Radical Scavenging Ability: mean ± S.E.M, n = 3
Source text: The antioxidant potential of the free acids and their Cu(II) carboxylates was explored via the DPPH method using ascorbic acid as a reference. The DPPH, with a single unpaired electron, is capable of accepting a hydrogen or electron and gives a strong absorption at 517 nm. The absorption generally decreases when it accepts a hydrogen or electron from an antioxidant, forming a stable molecule. The results given in Table 5 indicate that the compounds under study show a moderate level of antioxidant potential. This activity may be attributed to the various structural and electronic factors like coordination geometry, redox properties, chelate ring size, degree of unsaturation, etc.. The transfer of proton or electron from an antioxidant to DPPH results in the formation of species that undergo other reactions like coupling, fragmentation, and addition, which affect the rate and stoichiometry of the reaction.
The compounds under study were subjected to DPPH scavenging ability test as per cited literature. A 0.004% solution of reagent DPPH was added to the different concentrations of tested compounds (i.e., 125, 250, 500 and 1000 μg/mL) and the reaction mixture was incubated subsequently for about thirty minutes in dark. Ascorbic acid was used as positive control. The UV-3000 O.R.I. Germany was used to record the change in absorption of the reaction mixture at 517 nm and the percentage scavenging ability of the compounds under study was determined using formula: % scavenging activity =Absorbance of control−Absorbance of compounds /Absorbance of control×100
The experiments were repeated thrice. The GraphPad Prism® (version 4.0, Sandiego, CA, USA) was used to calculate the IC50 values.

[3] = biological target: butyrylcholinesterase (BChE) (Equus caballus, UniProt P81908); assay: biochemical; settings: for inhibition of butyrylcholinesterase (% BChE activity): n = 3
Protocol: (§1) The enzymes acetylcholinesterase (AChE) and butyrylcholinesterase (BChE) play an important role in the transfer of signals and physiological function. They assist acetylcholine to hydrolyze and produce choline and acetyl group in synaptic region. So, they are considered as targets in the management of Alzheimer’s disease. Herein, the compounds under study were evaluated for their potential to inhibit acetylthiocholine iodide (AChI) and butyrylthiocholine iodide (BChI) enzymes.
(§2) The well-known Ellman’s assay was implemented to evaluate the inhibitory potential using acetylthiocholine iodide (AChI) and butyrylthiocholine iodide (BChI) as substrates, respectively. The basic principle of the assay is the hydrolysis of acetylthiocholine iodide and butyrylthiocholine iodide by their corresponding enzymes, resulting in the formation of 5-thio-2-nitrobenzoate anion.
(§3) To carry out the assay, 0.1 M buffer solution with pH 8 was prepared as per the cited literature where the pH was adjusted using KOH (potassium hydroxide). Using the freshly prepared buffer and following the dilution, final concentrations of 0.03 U/mL for AChE (518 U/mg solid) and 0.01 U/mL for BChE (7–16 U/mg) were obtained. […] After that, the final solution of each of the AChE and BChE was prepared in distilled water in the presence of […] DTNB and were stored at 8 °C. The experiment was performed by taking 205 µL of inhibitor (tested compound) along with 5 µL of prepared solutions of enzymes, followed by the addition of 5 μL DTNB reagent. They were then incubated for about 15 min in a water bath at a temperature of 30 °C. Later on, 5 µL substrate solution was added to them which were subjected to absorption check at 412 nm. […] The temperature of the spectrophotometer was adjusted at 30 °C and then, following the reaction time of 4 min, the absorbance values were noted after regular intervals. The experiment was repeated, and change in absorption with time was used to calculate the percentage activity of enzyme and enzyme inhibitor [59]. The p values, or calculated probability levels, are categorized as: 5% (p < 0.05), 1% (p < 0.01) and 0.1% (p < 0.001). p < 0.05 means statistically significant and p < 0.001 means highly statistically significant.

DPPH scavenging assay [4] = settings: Comp. Conc. 62.5 µg/mL; mean ± S.E.M, n = 3
[5] = biological target: acetylcholinesterase (AChE) (Electrophorus electricus, UniProt O42275); assay: biochemical; type: biochemical; settings: for Inhibition of Acetylcholinesterase (%AChE Activity): n = 3
Protocol: The synthesized compounds were evaluated for acetylcholinesterase (ACh) and butyrylcholinesterase (BCh) enzyme inhibitory activities.
as §1, §2, §3

Chain of butyrylcholinesterase (BChE) (P81908 whole entry): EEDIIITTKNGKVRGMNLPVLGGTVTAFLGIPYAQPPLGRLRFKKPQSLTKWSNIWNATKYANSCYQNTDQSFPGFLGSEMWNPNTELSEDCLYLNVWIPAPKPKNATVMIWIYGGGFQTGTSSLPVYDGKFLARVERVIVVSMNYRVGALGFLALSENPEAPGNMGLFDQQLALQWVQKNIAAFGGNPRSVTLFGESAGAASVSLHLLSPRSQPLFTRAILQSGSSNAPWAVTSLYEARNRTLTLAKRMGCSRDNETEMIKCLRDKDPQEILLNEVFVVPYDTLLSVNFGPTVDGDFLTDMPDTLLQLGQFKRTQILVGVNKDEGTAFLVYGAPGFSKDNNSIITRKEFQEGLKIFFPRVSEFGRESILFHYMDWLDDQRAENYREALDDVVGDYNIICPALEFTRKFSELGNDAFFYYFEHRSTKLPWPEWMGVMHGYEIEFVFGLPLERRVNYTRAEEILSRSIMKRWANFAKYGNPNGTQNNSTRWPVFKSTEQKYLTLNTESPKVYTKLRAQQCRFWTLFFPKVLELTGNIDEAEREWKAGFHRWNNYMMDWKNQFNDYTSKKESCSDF
Chain of acetylcholinesterase (AChE) (O42275 24-633): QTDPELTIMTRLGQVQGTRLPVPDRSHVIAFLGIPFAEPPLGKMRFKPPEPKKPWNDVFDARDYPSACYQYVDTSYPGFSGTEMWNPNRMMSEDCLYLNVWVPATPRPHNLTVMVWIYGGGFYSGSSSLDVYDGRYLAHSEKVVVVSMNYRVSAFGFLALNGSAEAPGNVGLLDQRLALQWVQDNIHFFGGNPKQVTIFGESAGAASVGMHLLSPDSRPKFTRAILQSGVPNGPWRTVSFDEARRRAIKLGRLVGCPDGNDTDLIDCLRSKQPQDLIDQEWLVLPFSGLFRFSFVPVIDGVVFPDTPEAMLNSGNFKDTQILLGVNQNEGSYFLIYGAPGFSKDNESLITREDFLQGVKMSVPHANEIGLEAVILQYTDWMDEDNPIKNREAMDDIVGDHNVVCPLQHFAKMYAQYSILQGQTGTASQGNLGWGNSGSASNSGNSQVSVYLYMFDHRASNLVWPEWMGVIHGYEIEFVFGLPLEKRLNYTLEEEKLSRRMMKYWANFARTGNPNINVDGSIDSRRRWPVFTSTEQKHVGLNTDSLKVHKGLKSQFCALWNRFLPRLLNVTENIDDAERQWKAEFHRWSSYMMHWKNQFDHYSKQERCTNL

Structure (SMILES): N#Cc1cccnc1.N#Cc1cccnc1.O=C([O-])Cc1cccc(Cl)c1.O=C([O-])Cc1cccc(Cl)c1.O=C([O-])Cc1cccc(Cl)c1.O=C([O-])Cc1cccc(Cl)c1.[Cu+2].[Cu+2] [Complex 4, Cu2(3-ClC6H4COO)4(3-CNPy)2]
- IC50, H2O2 free radical scavenging ability [1]: 8.71 µg/mL
- H2O2 free radical scavenging ability ([1]; Comp. Conc. 62.5 µg/mL): 63.47 ± 0.56 %
- H2O2 free radical scavenging ability ([1]; Comp. Conc. 125 µg/mL): 67.74 ± 0.61 %
- H2O2 free radical scavenging ability ([1]; Comp. Conc. 250 µg/mL): 73.67 ± 0.61 %
- H2O2 free radical scavenging ability ([1]; Comp. Conc. 500 µg/mL): 78.76 ± 0.58 %
- H2O2 free radical scavenging ability ([1]; Comp. Conc. 1000 µg/mL): 85.00 ± 0.30 ^⸸ %
- IC50, DPPH Free Radical Scavenging Ability (DPPH scavenging assay [2]): 8.45 µg/mL
- DPPH Free Radical Scavenging Ability (DPPH scavenging assay [2]; Comp. Conc. 125 µg/mL): 68.30 ± 0.64 %
- DPPH Free Radical Scavenging Ability (DPPH scavenging assay [2]; Comp. Conc. 250 µg/mL): 73.34 ± 0.63 %
- DPPH Free Radical Scavenging Ability (DPPH scavenging assay [2]; Comp. Conc. 500 µg/mL): 78.30 ± 0.64 %
- DPPH Free Radical Scavenging Ability (DPPH scavenging assay [2]; Comp. Conc. 1000 µg/mL): 83.17 ± 0.72 %
- IC50, inhibition of butyrylcholinesterase [3]: 03 µg/mL
- inhibition of butyrylcholinesterase (% BChE activity) ([3]; Comp. Conc. 62.5 µg/mL): 68.52 ± 0.38 %
- inhibition of butyrylcholinesterase (% BChE activity) ([3]; Comp. Conc. 125 µg/mL): 72.64 ± 0.16 %
- inhibition of butyrylcholinesterase (% BChE activity) ([3]; Comp. Conc. 250 µg/mL): 77.61 ± 1.70 %
- inhibition of butyrylcholinesterase (% BChE activity) ([3]; Comp. Conc. 500 µg/mL): 81.94 ± 0.45 %
- inhibition of butyrylcholinesterase (% BChE activity) ([3]; Comp. Conc. 1000 µg/mL): 86.47 ± 0.22 ^⸸ %
- DPPH Free Radical Scavenging Ability (DPPH scavenging assay [4]): 61.93 ± 1.13 %
- IC50, Inhibition of Acetylcholinesterase [5]: 6 µg/mL
- Inhibition of Acetylcholinesterase (%AChE Activity) ([5]; Comp. Conc. 62.5 µg/mL): 67.90 ± 1.16 %
- Inhibition of Acetylcholinesterase (%AChE Activity) ([5]; Comp. Conc. 125 µg/mL): 72.34 ± 0.55 %
- Inhibition of Acetylcholinesterase (%AChE Activity) ([5]; Comp. Conc. 250 µg/mL): 78.36 ± 0.49 ^⸸ %
- Inhibition of Acetylcholinesterase (%AChE Activity) ([5]; Comp. Conc. 500 µg/mL): 83.39 ± 0.49 %
- Inhibition of Acetylcholinesterase (%AChE Activity) ([5]; Comp. Conc. 1000 µg/mL): 89.39 ± 0.60 %

Structure (SMILES): N#Cc1ccncc1.N#Cc1ccncc1.O=C([O-])Cc1ccccc1Cl.O=C([O-])Cc1ccccc1Cl.O=C([O-])Cc1ccccc1Cl.O=C([O-])Cc1ccccc1Cl.[Cu+2].[Cu+2] [Complex 2, Cu2(2-ClC6H4COO)4(4-CNPy)2]
- IC50, H2O2 free radical scavenging ability [1]: 4.50 µg/mL
- H2O2 free radical scavenging ability ([1]; Comp. Conc. 62.5 µg/mL): 74.17 ± 0.72 %
- H2O2 free radical scavenging ability ([1]; Comp. Conc. 125 µg/mL): 79.60 ± 0.90 ^⸸ %
- H2O2 free radical scavenging ability ([1]; Comp. Conc. 250 µg/mL): 85.50 ± 0.40 %
- H2O2 free radical scavenging ability ([1]; Comp. Conc. 500 µg/mL): 89.37 ± 1.65 %
- H2O2 free radical scavenging ability ([1]; Comp. Conc. 1000 µg/mL): 93.55 ± 0.40 %
- IC50, DPPH Free Radical Scavenging Ability (DPPH scavenging assay [2]): 3.22 µg/mL
- DPPH Free Radical Scavenging Ability (DPPH scavenging assay [2]; Comp. Conc. 125 µg/mL): 81.20 ± 0.65 ^⸙ %
- DPPH Free Radical Scavenging Ability (DPPH scavenging assay [2]; Comp. Conc. 250 µg/mL): 86.98 ± 0.85 %
- DPPH Free Radical Scavenging Ability (DPPH scavenging assay [2]; Comp. Conc. 500 µg/mL): 91.17 ± 0.53 %
- DPPH Free Radical Scavenging Ability (DPPH scavenging assay [2]; Comp. Conc. 1000 µg/mL): 95.20 ± 0.15 %
- IC50, inhibition of butyrylcholinesterase [3]: 04 µg/mL
- inhibition of butyrylcholinesterase (% BChE activity) ([3]; Comp. Conc. 62.5 µg/mL): 66.29 ± 0.43 %
- inhibition of butyrylcholinesterase (% BChE activity) ([3]; Comp. Conc. 125 µg/mL): 67.23 ± 0.44 %
- inhibition of butyrylcholinesterase (% BChE activity) ([3]; Comp. Conc. 250 µg/mL): 72.83 ± 1.07 %
- inhibition of butyrylcholinesterase (% BChE activity) ([3]; Comp. Conc. 500 µg/mL): 76.87 ± 0.39 %
- inhibition of butyrylcholinesterase (% BChE activity) ([3]; Comp. Conc. 1000 µg/mL): 81.44 ± 0.09 %
- DPPH Free Radical Scavenging Ability (DPPH scavenging assay [4]): 77.80 ± 0.37 ^⸙ %
- IC50, Inhibition of Acetylcholinesterase [5]: 2 µg/mL
- Inhibition of Acetylcholinesterase (%AChE Activity) ([5]; Comp. Conc. 62.5 µg/mL): 71.73 ± 0.66 %
- Inhibition of Acetylcholinesterase (%AChE Activity) ([5]; Comp. Conc. 125 µg/mL): 73.70 ± 0.35 ^⸙ %
- Inhibition of Acetylcholinesterase (%AChE Activity) ([5]; Comp. Conc. 250 µg/mL): 78.07 ± 0.62 ^⸸ %
- Inhibition of Acetylcholinesterase (%AChE Activity) ([5]; Comp. Conc. 500 µg/mL): 83.01 ± 0.42 ^⸸ %
- Inhibition of Acetylcholinesterase (%AChE Activity) ([5]; Comp. Conc. 1000 µg/mL): 87.50 ± 2.26 ^⸙ %

Structure (SMILES): O=C([O-])Cc1cccc(Cl)c1.O=C([O-])Cc1cccc(Cl)c1.O=C([O-])Cc1cccc(Cl)c1.O=C([O-])Cc1cccc(Cl)c1.Oc1ccncc1.Oc1ccncc1.[Cu+2].[Cu+2] [Complex 6, Cu2(3-ClC6H4COO)4(4-OHPy)2]
- IC50, H2O2 free radical scavenging ability [1]: 10.65 µg/mL
- H2O2 free radical scavenging ability ([1]; Comp. Conc. 62.5 µg/mL): 61.35 ± 0.18 %
- H2O2 free radical scavenging ability ([1]; Comp. Conc. 125 µg/mL): 66.20 ± 0.15 %
- H2O2 free radical scavenging ability ([1]; Comp. Conc. 250 µg/mL): 73.42 ± 0.11 %
- H2O2 free radical scavenging ability ([1]; Comp. Conc. 500 µg/mL): 78.62 ± 0.17 %
- H2O2 free radical scavenging ability ([1]; Comp. Conc. 1000 µg/mL): 83.53 ± 0.20 %
- IC50, DPPH Free Radical Scavenging Ability (DPPH scavenging assay [2]): 14.51 µg/mL
- DPPH Free Radical Scavenging Ability (DPPH scavenging assay [2]; Comp. Conc. 125 µg/mL): 63.47 ± 0.49 %
- DPPH Free Radical Scavenging Ability (DPPH scavenging assay [2]; Comp. Conc. 250 µg/mL): 68.75 ± 0.14 %
- DPPH Free Radical Scavenging Ability (DPPH scavenging assay [2]; Comp. Conc. 500 µg/mL): 75.59 ± 0.30 %
- DPPH Free Radical Scavenging Ability (DPPH scavenging assay [2]; Comp. Conc. 1000 µg/mL): 80.85 ± 0.18 %
- IC50, inhibition of butyrylcholinesterase [3]: 42 µg/mL
- inhibition of butyrylcholinesterase (% BChE activity) ([3]; Comp. Conc. 62.5 µg/mL): 57.00 ± 1.15 %
- inhibition of butyrylcholinesterase (% BChE activity) ([3]; Comp. Conc. 125 µg/mL): 61.67 ± 0.89 %
- inhibition of butyrylcholinesterase (% BChE activity) ([3]; Comp. Conc. 250 µg/mL): 65.00 ± 0.58 %
- inhibition of butyrylcholinesterase (% BChE activity) ([3]; Comp. Conc. 500 µg/mL): 72.03 ± 0.23 %
- inhibition of butyrylcholinesterase (% BChE activity) ([3]; Comp. Conc. 1000 µg/mL): 75.33 ± 0.49 %
- DPPH Free Radical Scavenging Ability (DPPH scavenging assay [4]): 58.12 ± 0.34 %
- Inhibition of Acetylcholinesterase (%AChE Activity) ([5]; Comp. Conc. 62.5 µg/mL): 58.74 ± 0.68 %
- Inhibition of Acetylcholinesterase (%AChE Activity) ([5]; Comp. Conc. 125 µg/mL): 62.70 ± 1.25 %
- Inhibition of Acetylcholinesterase (%AChE Activity) ([5]; Comp. Conc. 250 µg/mL): 67.05 ± 0.75 %
- Inhibition of Acetylcholinesterase (%AChE Activity) ([5]; Comp. Conc. 500 µg/mL): 72.32 ± 1.06 %
- Inhibition of Acetylcholinesterase (%AChE Activity) ([5]; Comp. Conc. 1000 µg/mL): 77.34 ± 0.98 %

— paper PMC10224544, “Synthesis, Structural Elucidation and Pharmacological Applications of Cu(II) Heteroleptic Carboxylates” (Pharmaceuticals, 2023)
